Reference: the supplement of paper PMC10307832

Experiments:
Experiment in all cases: relative viability (nuclei count vs DMSO), 5 days (fraction); higher = more cells survive
[1] = compound: CCN(CCO)CCCC(C)Nc1ccnc2cc(Cl)ccc12 [Hydroxychloroquine] + C[C@@H](Oc1cc(-c2cnn(C3CCNCC3)c2)cnc1N)c1c(Cl)ccc(F)c1Cl [Crizotinib] (partner 1 µM)
Summary of the method: (§1)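 A single step with final 0.05% Triton X-100, 1% formaldehyde and 1 ug/ml Hoechst fixed the cells and stained nuclei 5 days after treatment. Lung cancer cell lines in 1536-well plates had been treated by pin tool the day after seeding with one drug alone or a fixed anchor-drug dose plus five library-drug doses (not always all listed) in √10 steps, and nuclei were counted on 4× images. Relative viability is the ratio of nuclei in treated wells to nuclei in vehicle wells, taken as the median of duplicate plates.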

[2] = compound: CCN(CCO)CCCC(C)Nc1ccnc2cc(Cl)ccc12 [Hydroxychloroquine] + O=C(CCCCCCC(=O)Nc1ccccc1)NO [Vorinostat] (partner 1 µM)
Summary of the method: as §1

[3] = compound: CCN(CCO)CCCC(C)Nc1ccnc2cc(Cl)ccc12 [Hydroxychloroquine] + CC1(C)CCC(c2ccc(Cl)cc2)=C(CN2CCN(c3ccc(C(=O)NS(=O)(=O)c4ccc(N[C@H](CCN5CCOCC5)CSc5ccccc5)c(S(=O)(=O)C(F)(F)F)c4)cc3)CC2)C1 [Navitoclax] (partner 0.5 µM)
Summary of the method: as §1

[4] = compound: CCN(CCO)CCCC(C)Nc1ccnc2cc(Cl)ccc12 [Hydroxychloroquine] + Cc1cc(Nc2cc(N3CCN(C)CC3)nc(Sc3ccc(NC(=O)C4CC4)cc3)n2)n[nH]1 [Tozasertib] (partner 0.1 µM)
Summary of the method: as §1

| Cell Line | relative viability ([1]; first compound 0.5 µM) | relative viability ([1]; first compound 1.581 µM) | relative viability ([1]; first compound 5 µM) | relative viability ([1]; first compound 15.81 µM) | relative viability ([1]; first compound 50 µM) | relative viability ([2]; first compound 0.5 µM) | relative viability ([2]; first compound 1.581 µM) | relative viability ([2]; first compound 5 µM) | relative viability ([2]; first compound 15.81 µM) | relative viability ([2]; first compound 50 µM) | relative viability ([3]; first compound 0.5 µM) | relative viability ([3]; first compound 1.581 µM) | relative viability ([3]; first compound 5 µM) | relative viability ([3]; first compound 15.81 µM) | relative viability ([3]; first compound 50 µM) | relative viability ([4]; first compound 0.5 µM) | relative viability ([4]; first compound 1.581 µM) | relative viability ([4]; first compound 5 µM) | relative viability ([4]; first compound 15.81 µM) | relative viability ([4]; first compound 50 µM) |
| --- | --- | --- | --- | --- | --- | --- | --- | --- | --- | --- | --- | --- | --- | --- | --- | --- | --- | --- | --- | --- |
| H3255 | 0.848 | 0.979 | 0.716 | 0.841 | 0.985 | 0.741 | 0.715 | 0.716 | 0.858 | 0.762 | 0.56 | 0.422 | 0.546 | 0.522 | 0.635 | 0.687 | 0.558 | 0.682 | 0.796 | 0.677 |
| HCC-44 | 0.821 | 0.804 | 0.87 | 0.829 | 1.01 | 1.1 | 1.09 | 1.14 | 1.1 | 1.14 | 1.02 | 1 | 0.964 | 0.994 | 1.06 | 1.18 | 0.937 | 0.895 | 0.934 | 1.3 |
| NCI-H1734 | 0.652 | 0.559 | 0.741 | 0.582 | 0.716 | 0.856 | 0.697 | 0.787 | 0.866 | 0.826 | 0.913 | 0.812 | 0.86 | 0.988 | 0.948 | 0.276 | 0.297 | 0.274 | 0.245 | 0.31 |
| NCI-H2228 | 0.461 | 0.46 | 0.46 | 0.491 | 0.427 | 0.5 | 0.594 | 0.457 | 0.515 | 0.839 | 0.671 | 0.717 | 1.04 | 0.78 | 1.16 | 0.281 | 0.201 | 0.285 | 0.259 | 0.321 |
| COR-L23 | 0.786 | 0.573 | 0.895 | 0.868 | 0.86 | 0.409 | 0.455 | 0.545 | 0.453 | 0.415 | 1.03 | 0.926 | 1.24 | 1.31 | 1.12 | 0.191 | 0.218 | 0.267 | 0.209 | 0.225 |
| NCI-H727 | 0.839 | 0.815 | 0.804 | 0.908 | 0.885 | 1.07 | 1.22 | 1.23 | 0.969 | 1.33 | 0.456 | 0.399 | 0.482 | 0.357 | 0.406 | 0.646 | 0.509 | 0.597 | 0.561 | 0.593 |
| NCI-H1993 | 0.867 | 0.948 | 0.803 | 0.888 | 0.949 | 0.828 | 0.837 | 0.599 | 0.656 | 0.727 | 0.931 | 0.779 | 0.879 | 1.03 | 0.893 | 0.514 | 0.648 | 0.571 | 0.569 | 0.592 |
| NCI-H1437 | 0.824 | 0.985 | 0.963 | 0.97 | 1.03 | 0.853 | 0.862 | 0.85 | 0.844 | 0.891 | 1.08 | 1.1 | 1.11 | 1.14 | 1.11 | 0.395 | 0.42 | 0.426 | 0.438 | 0.427 |
